Among the data in patent US10227360B2, “Compounds for use as GPR120 agonists” (PIRAMAL ENTERPRISES LIMITED, priority 2014, dated 2019) are EC50 values, retold here.

Chain of GPR120L receptor (Q5NUL3 other isoform, or with tags, fused parts or gaps): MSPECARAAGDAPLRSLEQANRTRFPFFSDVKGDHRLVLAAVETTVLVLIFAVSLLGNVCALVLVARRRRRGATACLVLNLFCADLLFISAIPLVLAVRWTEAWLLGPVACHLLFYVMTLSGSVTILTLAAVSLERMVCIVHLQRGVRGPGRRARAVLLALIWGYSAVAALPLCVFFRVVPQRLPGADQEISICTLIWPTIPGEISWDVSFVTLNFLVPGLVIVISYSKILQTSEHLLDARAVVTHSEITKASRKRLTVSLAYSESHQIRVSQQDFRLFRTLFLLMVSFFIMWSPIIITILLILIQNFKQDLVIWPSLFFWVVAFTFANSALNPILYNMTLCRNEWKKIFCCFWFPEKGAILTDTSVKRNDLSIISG

This assay has as its target GPR120L receptor (Homo sapiens (Human), UniProt Q5NUL3). In words: Beta (β) arrestin 2 Interaction Assay (BRET assay), β-galactosidase enzyme fragment complementation. To be noted: CHO-K1 cells stably expressing the GPR120L receptor; β-arrestin recruitment; 2 hours incubation. It is filed as cell-based. As to the method: Beta (β) arrestin 2 Interaction Assay (BRET assay) was performed using CHO-K1 cells stably expressing the GPR120L receptor using β-galactosidase (Beta gal) enzyme fragment complementation assay. The measurement of GPR120 activation upon agonist activation was directly provided by β-arrestin recruitment. One day before the β-arrestin 2 assay, CHO-K1 cells were seeded and incubated overnight at 37° C. in a 5% CO2 humidified atmosphere. Cells were treated with the test compounds in the various concentrations ranging from 30 μM to 1 nM and incubated for 2 hours for GPCR (GPR120) activation. Extent of Arrestin recruitment was measured by adding detection reagents for Beta gal complementation assay and was further incubated for 1 hour. The chemi-luminescent signal was detected on Polar Star (BMG Labtech). The dose-response curve was analyzed using Sigma Plot/Graph Pad. The EC50 (concentration of the test compounds where 50% of compounds' maximal activity is observed) values were calculated from the dose-response curve.
The term EC50 denotes the concentration needed to bring the measured effect to its halfway point. The molecule `N#CC1(c2ccc(-c3ncccc3COc3ccc(CCC(=O)O)cc3)cc2)CC1` [Example 21, 3-(4-((2-(4-(1-Cyanocyclopropyl)phenyl)pyridin-3-yl)methoxy)phenyl)propanoic acid] yielded an EC50 of 5000 to 50000 nM. `O=C(O)CCCc1ccc(OCc2cc(F)ccc2-c2ccc(C3CCCCC3)cc2)cc1` [Example 16, 4-(4-((4′-Cyclohexyl-4-fluoro-[1,1′-biphenyl]-2-yl)methoxy)phenyl)butanoic acid] came in with a concentration giving a half-maximal response (EC50) of 500 to 5000 nM. With `COC1CCCc2cc(-c3ccc(F)cc3COc3ccc(CCCC(=O)O)cc3)ccc21` (stereo not shown) [Example 38, 4-(4-((5-Fluoro-2-(5-methoxy-5,6,7,8-tetrahydronaphthalen-2-yl)benzyl)oxy)phenyl)butanoic acid], the EC50 lay in the range of 5000 to 50000 nM. The molecule `O=C(O)CCCc1ccc(OCc2cc(F)ccc2-c2ccc3c(c2)CCC3)cc1` [Example 8, 4-(4-((2-(2,3-Dihydro-1H-inden-5-yl)-5-fluorobenzyl)oxy)phenyl)butanoic acid] came in with an EC50 of 10 to 500 nM. The molecule `O=C(O)CCCc1ccc(OCc2cc(F)ccc2-c2ccc(C3(F)CC3)s2)cc1` [Example 42, 4-(4-((5-Fluoro-2-(5-(1-fluorocyclopropyl)thiophen-2-yl)benzyl)oxy)phenyl)butanoic acid] registered a 50% effective concentration (EC50) of 5000 to 50000 nM.

For the molecule `N#CC1(c2ccc(-c3ccc(F)cc3COc3ccc(CCCC(=O)O)cc3)cc2)CC1` [Example 4, 4-(4-((4′-(1-Cyanocyclopropyl)-4-fluoro-[1,1′-biphenyl]-2-yl)methoxy)phenyl)butanoic acid], the EC50 lay in the range of 10 to 500 nM. Molecule `N#CC1(c2ccc(-c3ccc(F)cc3COc3ccc(CCC(=O)O)cc3)s2)CC1` [Example 2, 3-(4-((2-(5-(1-Cyanocyclopropyl)thiophen-2-yl)-5-fluorobenzyl)oxy)phenyl)propanoic acid] returned an EC50 of 500 to 5000 nM. In turn, `CC1(C)CCC=C1c1ccc(-c2ccc(F)cc2COc2ccc(CCC(=O)O)cc2)cc1` [Example 15, 3-(4-((4′-(5,5-Dimethylcyclopent-1-en-1-yl)-4-fluoro-[1,1′-biphenyl]-2-yl)methoxy)phenyl)propanoic acid] had an EC50 of 5000 to 50000 nM. The molecule `O=C(O)CCCc1ccc(OCc2cc(F)ccc2-c2cnc(C3CC3)nc2)cc1` [Example 31, 4-(4-((2-(2-Cyclopropylpyrimidin-5-yl)-5-fluorobenzyl)oxy)phenyl)butanoic acid] showed an EC50 of 10 to 500 nM. `O=C(O)CCCc1ccc(OCc2cc(F)ccc2-c2ncc(C3CC3)s2)cc1` [Example 45, 4-(4-((2-(5-Cyclopropylthiazol-2-yl)-5-fluorobenzyl)oxy)phenyl)butanoic acid] came in with an EC50 of 10 to 500 nM. Turning to `O=C(O)CCCc1ccc(OCc2cc(F)ccc2-c2ccc(C3CC3)cc2)cc1` [Example 7, 4-(4-((4′-Cyclopropyl-4-fluoro-[1,1′-biphenyl]-2-yl)methoxy)phenyl)butanoic acid], the 50% effective concentration (EC50) fell in the range of 10 to 500 nM. `O=C(O)CCCc1ccc(OCc2cc(F)ccc2-c2nc3c(s2)COCC3)cc1` [Example 49, 4-(4-((2-(6,7-Dihydro-4H-pyrano[4,3-d]thiazol-2-yl)-5-fluorobenzyl)oxy)phenyl)butanoic acid] had a concentration for a half-maximal effect (EC50) of 10 to 500 nM.

Regarding `CC1(c2ccc(-c3ccc(F)cc3COc3ccc(CCCC(=O)O)cc3)cc2)CC1` [Example 3, 4-(4-((4-Fluoro-4′-(1-methylcyclopropyl)-[1,1′-biphenyl]-2-yl)methoxy)phenyl)butanoic acid], the 50% effective concentration (EC50) was in the range of 10 to 500 nM.
